In publication PMC6452685, “Lysyl-tRNA synthetase as a drug target in malaria and cryptosporidiosis” (Proceedings of the National Academy of Sciences of the …, 2019):
pEC50, pIC50: −log10 of the molar value. Read-outs that look alike come from different tables or passages of the source.

Tests used:
[1] = target: T1, HsKRS (Homo sapiens, UniProt Q15046); experiment: HsKRS SAR assay, luciferase ATP consumption (Kinase-Glo); format: biochemical
T1 construct: HsKRS (full-length) proteins; 6xHis (N); made in house; host or cells: E. coli Rosetta BL21(DE3), vector pAVA0421 (UW); template pET28a-KRS
T1 sequence (Q15046 whole entry): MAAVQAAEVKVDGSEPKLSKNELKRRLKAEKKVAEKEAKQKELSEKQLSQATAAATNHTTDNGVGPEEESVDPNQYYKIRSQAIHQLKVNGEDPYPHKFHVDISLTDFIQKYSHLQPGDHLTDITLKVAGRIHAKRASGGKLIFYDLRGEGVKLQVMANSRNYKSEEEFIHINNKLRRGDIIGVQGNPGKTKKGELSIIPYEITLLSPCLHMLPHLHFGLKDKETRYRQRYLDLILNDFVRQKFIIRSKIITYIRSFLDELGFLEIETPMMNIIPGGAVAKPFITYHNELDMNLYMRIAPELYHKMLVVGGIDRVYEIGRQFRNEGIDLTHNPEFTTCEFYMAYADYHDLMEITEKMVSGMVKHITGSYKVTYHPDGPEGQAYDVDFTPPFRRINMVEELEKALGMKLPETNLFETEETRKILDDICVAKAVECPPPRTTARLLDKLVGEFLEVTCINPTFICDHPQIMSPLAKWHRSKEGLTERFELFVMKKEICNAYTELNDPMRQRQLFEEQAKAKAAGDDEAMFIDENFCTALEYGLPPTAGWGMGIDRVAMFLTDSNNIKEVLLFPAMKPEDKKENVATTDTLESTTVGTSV
Description: We produced recombinant PfKRS1 (77–583 and 80–583), CpKRS (46-end), and HsKRS (full-length) proteins and developed biochemical assays based on the luciferase ATP consumption assay (Kinase-Glo; Promega) ([16]), which was suitable for the high-throughput screening, and the pyrophosphate generation assay (EnzChek) ([17]) format for kinetic characterization of the enzymes. The activities of recombinant enzymes were analyzed by monitoring only the first stage of the aminoacylation reaction. This reaction is suitable for high-throughput screening campaigns and makes the reaction more amenable for steady-state kinetic studies. By using the EnzChek assay, which monitors the production of pyrophosphate (when coupled with pyrophosphatase), Km values were obtained for PfKRS1, CpKRS, and HsKRS for ATP and L-lysine (Table 1 and SI Appendix, Fig. S1 and Table S1). […] This may be due to structural differences (see below) between the active sites of the parasite and human enzymes. […]
2.7 PfKR S1, CpKRS and HsKR S S AR Ass ay Usin g L ucife r ase ATP C onsumption ( Kinase Glo ®) Inhi bi ti on of KRS acti vity by cl adospori n and other compou nds was assayed i n t he buffered me di um.
Each as s ay w el l was compos ed of b uffer (as des cri bed i n Ta bl e S3), 10 µM l ysi ne and ei ther 8.1 nM PfKRS1, 8.1 nM CpKRS or 6.6 nM HsKRS. […] The react i on w a s initiated by the addition of 2 µM ATP. The plate was incubated with shaking at 90 rpm and 30°C for 120 mi n. […] Maximum and minimum signal controls were included in each reaction plate. […] Analysis and calculation of inhibitors IC50 values were performed using Graphpad® Prism software (GraphPad S oftware, San Diego, CA). […]

[2] = test system: HepG2 cells; experiment: HepG2 cytotoxicity; format: cell-based; settings: Homo sapiens
Text: 3.2 Cytotoxicity Studies (Dundee)
In vi t ro cy totox i ci ty s tudies can be ca rri ed out us i ng Hep G 2 (Human C aucas i an hepatocy te ca rci noma, ECACC cat. no. 850 114 30) us ed as i ndi cators f or g eneral mammal i an cel l tox i ci ty . […]
3.3 In vitro Cell Assay D ata Analysis (Du ndee) […]
as 0%. Qual i ty control c ri teri a for passi ng pl ates were as fol l ow s : Z’ > 0.
< 15 . T he f ormula used to calculate Z’ is 1- 3´ (St D e v _ hi gh + St D e v_ low) . […]
Al l EC50 Curve fitti ng was undertaken usi ng XLFi t versi on 4.2 usi ng Model 205 wi th the foll owi ng 4 paramet ri c equat i on: A + (?-A) ,where A=% i nhi bi ti on at bo ttom, B=% i nhi bi ti on at top, C= EC , […]
D= slope, x= inhibitor concentration a nd y= % inhibition. […]
was fixed to 100 only when at least 50% of inhibition was reached. […]

[3] = target: PfKRS1 (Plasmodium falciparum, UniProt Q8IDJ8); experiment: Recombinant KRS thermal shift assay, PfKRS1; format: binding; design: recombinant PfKRS1 (77–583 and 80–583); 6xHis (N); made in house; host or cells: E. coli Rosetta BL21(DE3), vector pAVA0421; settings: 40 µM inhibitor
PfKRS1, sequence (Q8IDJ8 77-583): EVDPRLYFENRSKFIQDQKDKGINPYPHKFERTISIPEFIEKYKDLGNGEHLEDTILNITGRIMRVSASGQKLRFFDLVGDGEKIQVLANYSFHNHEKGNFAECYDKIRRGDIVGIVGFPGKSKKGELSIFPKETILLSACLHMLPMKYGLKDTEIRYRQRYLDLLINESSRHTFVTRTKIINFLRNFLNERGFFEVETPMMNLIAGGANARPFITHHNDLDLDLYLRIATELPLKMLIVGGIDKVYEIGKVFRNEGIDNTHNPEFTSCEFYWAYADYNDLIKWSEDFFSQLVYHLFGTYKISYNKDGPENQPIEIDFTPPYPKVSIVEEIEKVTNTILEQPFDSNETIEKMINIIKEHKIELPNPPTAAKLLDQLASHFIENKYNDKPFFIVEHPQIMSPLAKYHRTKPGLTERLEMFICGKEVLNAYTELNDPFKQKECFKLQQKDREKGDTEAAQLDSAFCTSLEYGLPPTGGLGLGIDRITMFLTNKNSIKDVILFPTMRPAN
Description: 2.9 Recombin ant KR S thermal shift assays ( UW)
Recombi nant PfKRS1, CpKRS, and HsKRS were di l u ted to 4 µM in assay buffe r c ontaining 20 mM Tris-HC l pH 8, 200 mM NaC l , 5 mM DTT, 5 mM MgC l2 and l i gands (1 mM lysi ne; 40 µM ATP; and 40 µM inhibitors) in various combinations. Ali quot s (10 µl) were added to a 96-well PCR plate and incubated at ambi ent temperature for 15 mi n. SYPRO® Ora n g e dye (I nv itrog en) was di l uted i n ass ay buffer to a 5x concent rat i on a nd 1 0 µl was added to t he P C R pl at e t o bri ng t he fi nal as s ay v ol ume t o 20 µl. The pl at e w as s eal ed and pul s e cent ri fug ed t o cons ol i dat e t he as s ay mix t ure and remov e ai r bu bbl es .
Us i ng a StepOne Pl us RT-PCR thermal cycler (Ap plied Biosystems) to monitor fluorescence at a n excitation/emission wavelength of 300/470-570 nm, the samples were heated from 25° C to 99° C at a ramp rate of .016° C/sec. Graphpa d® P rism software (GraphPad S oftware, San Diego, CA) was used to determine melting temperatures (Tm) us i ng Bol tzmann s i g moi dal analys is .
Table S3. Thermal shift data for compounds with P fKRS1, Cp KRS a nd Hs KRS.
Com poun d Eff ects o n Lys R S M elti ng Tem pe ratu re ( ∆Tm) […]

[4] = read-out: ΔTm PfKRS, ATP + Lysine
[5] = read-out: ΔTm PfKRS, no substrate

Question: `O=C(NCC1CCCCC1)c1cc(=O)c2ccccc2o1` [Compound 2] was tested. Which pIC50 [1] did it give?
Answer: < 5.70

Question: What about the pEC50 [2] of the same compound?
Answer: < 4.30

Question: And the ΔTm at 40 µM [3, 4]?
Answer: 5.1 °C

Question: What about the ΔTm at 40 µM ([3]; read-out: ΔTm PfKRS, ATP) of the same compound?
Answer: 0.9 °C

Question: What about the ΔTm at 40 µM ([3]; read-out: ΔTm PfKRS, Lysine) of the same compound?
Answer: 7.4 °C

Question: What about the ΔTm at 40 µM [3, 5] of the same compound?
Answer: 1.2 °C

Question: Which results are given for `C[C@H]1CCC[C@H](C[C@H]2Cc3cc(O)cc(O)c3C(=O)O2)O1` [Compound 1, cladosporin, reference compound]?
Answer: pIC50 [1]: < 5.70; pEC50 [2]: < 4.30; ΔTm at 40 µM ([3]; ATP + Lysine, read-out: ΔTm PfKRS): 7.2 °C; ΔTm at 40 µM ([3]; ATP, read-out: ΔTm PfKRS): 3.5 °C; ΔTm at 40 µM ([3]; Lysine, read-out: ΔTm PfKRS): 9.3 °C; ΔTm at 40 µM ([3]; no substrate, read-out: ΔTm PfKRS): 3.4 °C

Question: What does the source list for `O=C(NCC1CCCCC1)c1cc(=O)c2cc(F)ccc2o1` [Compound 3]?
Answer: pIC50 [1]: < 5.70; pEC50 [2]: < 4.30; ΔTm at 40 µM [3, 4]: 2.4 °C; ΔTm at 40 µM ([3]; read-out: ΔTm PfKRS, ATP): 0.2 °C; ΔTm at 40 µM ([3]; read-out: ΔTm PfKRS, Lysine): 5.3 °C; ΔTm at 40 µM [3, 5]: 0.5 °C

Question: `O=C(NCC1(O)CCCCC1)c1cc(=O)c2cc(F)ccc2o1` [Compound 4] was tested. Which pIC50 [1] did it give?
Answer: 6.13

Question: What about the pEC50 [2] of the same compound?
Answer: 4.49

Question: And the ΔTm at 40 µM [3, 4]?
Answer: 5.1 °C

Question: And the ΔTm at 40 µM ([3]; read-out: ΔTm PfKRS, ATP)?
Answer: 0.5 °C

Question: What about the ΔTm at 40 µM ([3]; read-out: ΔTm PfKRS, Lysine) of the same compound?
Answer: 7.5 °C

Question: And the ΔTm at 40 µM [3, 5]?
Answer: 0.9 °C

Question: With `O=C(NCC1(O)CCC(F)(F)CC1)c1cc(=O)c2cc(F)ccc2o1` [Compound 5] as the compound, how does the pIC50 [1] read?
Answer: 5.74

Question: What about the pEC50 [2] of the same compound?
Answer: 4.31

Question: What about the ΔTm at 40 µM [3, 4] of the same compound?
Answer: 5.3 °C

Question: And the ΔTm at 40 µM ([3]; read-out: ΔTm PfKRS, ATP)?
Answer: 0.9 °C

Question: And the ΔTm at 40 µM ([3]; read-out: ΔTm PfKRS, Lysine)?
Answer: 7.5 °C

Question: What about the ΔTm at 40 µM [3, 5] of the same compound?
Answer: 1.3 °C
